{"source": "patent US8574563B2", "about": "(Bristol-Myers Squibb Company, priority 2006, dated 2013)", "system": "HCV 1b-377-neo replicon cells", "assay": "HCV replicon assay, HCV 1b-377-neo replicon cells (1b FRET)", "type": "cell-based, Hepatitis C virus genotype 1b", "settings": "Hepatitis C virus, HCV 1b-377-neo replicon cells; HCV 1b genotype; read-out: EC50 range against HCV 1b (Table 2, Range)", "summary_of_the_method": "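FRET-based replicon assay in HCV 1b-377-neo cells, including a comparison line carrying the NS5A Y2065H mutation that confers resistance to a reference compound.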", "data": [{"compound": "CCN(CC)[C@@H](C(=O)N1CCC[C@H]1c1ncc(-c2ccc(-c3ccc(-c4cnc([C@@H]5CCCN5C(=O)[C@H]5CC[C@@H](NC(=O)OC)C5)[nH]4)cc3)cc2)[nH]1)c1ccccc1", "note": "[cj-60, methyl ((1R,3S)-3-(((2S)-2-(5-(4′-(2-((2S)-1-((2R)-2-(diethylamino)-2-phenylacetyl)-2-pyrrolidinyl)-1H-imidazol-5-yl)-4-biphenylyl)-1H-imidazol-2-yl)-1-pyrrolidinyl)carbonyl)cyclopentyl)carbamate]", "values": [{"measurement": "EC50", "result": "0.001 to 0.999", "unit": "nM"}]}, {"compound": "COC(=O)N[C@H]1CC[C@@H](C(=O)N2CCC[C@H]2c2ncc(-c3ccc(-c4ccc(-c5cnc([C@@H]6CCCN6C(=O)[C@@H](NC(=O)OC)C(C)C)[nH]5)cc4)cc3)[nH]2)C1", "note": "[cj-61, methyl ((1S)-1-(((2S)-2-(5-(4′-(2-((2S)-1-(((1R,3S)-3-((methoxycarbonyl)amino)cyclopentyl)carbonyl)-2-pyrrolidinyl)-1H-imidazol-5-yl)-4-biphenylyl)-1H-imidazol-2-yl)-1-pyrrolidinyl)carbonyl)-2-methylpropyl)carbamate]", "values": [{"measurement": "EC50", "result": "0.001 to 0.999", "unit": "nM"}]}, {"compound": "COC(=O)N[C@@H]1CC[C@H](C(=O)N2CCC[C@H]2c2ncc(-c3ccc(-c4ccc(-c5cnc([C@@H]6CCCN6C(=O)[C@@H](NC(=O)OC)C(C)C)[nH]5)cc4)cc3)[nH]2)C1", "note": "[cj-62, methyl ((1S)-1-(((2S)-2-(5-(4′-(2-((2S)-1-(((1S,3R)-3-((methoxycarbonyl)amino)cyclopentyl)carbonyl)-2-pyrrolidinyl)-1H-imidazol-5-yl)-4-biphenylyl)-1H-imidazol-2-yl)-1-pyrrolidinyl)carbonyl)-2-methylpropyl)carbamate]", "values": [{"measurement": "EC50", "result": "0.001 to 0.999", "unit": "nM"}]}, {"compound": "COC(=O)N[C@H]1CC[C@@H](C(=O)N2CCC[C@H]2c2ncc(-c3ccc(-c4ccc(-c5cnc([C@@H]6CCCN6C(=O)[C@H](NC(=O)OC)c6ccccc6)[nH]5)cc4)cc3)[nH]2)C1", "note": "[cj-63, methyl ((1R)-2-((2S)-2-(5-(4′-(2-((2S)-1-(((1R,3S)-3-((methoxycarbonyl)amino)cyclopentyl)carbonyl)-2-pyrrolidinyl)-1H-imidazol-5-yl)-4-biphenylyl)-1H-imidazol-2-yl)-1-pyrrolidinyl)-2-oxo-1-phenylethyl)carbamate]", "values": [{"measurement": "EC50", "result": "0.001 to 0.999", "unit": "nM"}]}, {"compound": "COC(=O)N[C@@H]1CC[C@H](C(=O)N2CCC[C@H]2c2ncc(-c3ccc(-c4ccc(-c5cnc([C@@H]6CCCN6C(=O)[C@H](NC(=O)OC)c6ccccc6)[nH]5)cc4)cc3)[nH]2)C1", "note": "[cj-64, methyl ((1R)-2-((2S)-2-(5-(4′-(2-((2S)-1-(((1S,3R)-3-((methoxycarbonyl)amino)cyclopentyl)carbonyl)-2-pyrrolidinyl)-1H-imidazol-5-yl)-4-biphenylyl)-1H-imidazol-2-yl)-1-pyrrolidinyl)-2-oxo-1-phenylethyl)carbamate]", "values": [{"measurement": "EC50", "result": "0.001 to 0.999", "unit": "nM"}]}, {"compound": "COC(=O)N[C@@H](Cc1ccccn1)C(=O)N1CCC[C@H]1c1ncc(-c2ccc(-c3ccc(-c4cnc([C@@H]5CCCN5C(=O)[C@@H](NC(=O)OC)C(C)C)[nH]4)cc3)cc2)[nH]1", "note": "[cj-65, methyl ((1S)-1-(((2S)-2-(5-(4′-(2-((2S)-1-((2S)-2-((methoxycarbonyl)amino)-3-(2-pyridinyl)propanoyl)-2-pyrrolidinyl)-1H-imidazol-5-yl)-4-biphenylyl)-1H-imidazol-2-yl)-1-pyrrolidinyl)carbonyl)-2-methylpropyl)carbamate]", "values": [{"measurement": "EC50", "result": "0.001 to 0.999", "unit": "nM"}]}, {"compound": "COC(=O)N[C@@H](C)C(=O)N1CCC[C@H]1c1ncc(-c2ccc(-c3ccc(-c4cnc([C@@H]5CCCN5C(=O)[C@H](Cc5ccccn5)NC(=O)OC)[nH]4)cc3)cc2)[nH]1", "note": "[cj-66, methyl ((1S)-2-((2S)-2-(5-(4′-(2-((2S)-1-(N-(methoxycarbonyl)-L-alanyl)-2-pyrrolidinyl)-1H-imidazol-5-yl)-4-biphenylyl)-1H-imidazol-2-yl)-1-pyrrolidinyl)-2-oxo-1-(2-pyridinylmethyl)ethyl)carbamate]", "values": [{"measurement": "EC50", "result": "0.001 to 0.999", "unit": "nM"}]}, {"compound": "COC(=O)N[C@@H](Cc1ccccn1)C(=O)N1CCC[C@H]1c1ncc(-c2ccc(-c3ccc(-c4cnc([C@@H]5CCCN5C(=O)[C@@H](NC(=O)OC)[C@@H](C)OC)[nH]4)cc3)cc2)[nH]1", "note": "[cj-67]", "values": [{"measurement": "EC50", "result": "0.001 to 0.999", "unit": "nM"}]}, {"compound": "CCN(CC)[C@@H](C(=O)N1CCC[C@H]1c1ncc(-c2ccc(-c3ccc(-c4cnc([C@@H]5CCCN5C(=O)[C@H](Cc5ccccn5)NC(=O)OC)[nH]4)cc3)cc2)[nH]1)c1ccccc1", "note": "[cj-68, methyl ((1S)-2-((2S)-2-(5-(4′-(2-((2S)-1-((2R)-2-(diethylamino)-2-phenylacetyl)-2-pyrrolidinyl)-1H-imidazol-5-yl)-4-biphenylyl)-1H-imidazol-2-yl)-1-pyrrolidinyl)-2-oxo-1-(2-pyridinylmethyl)ethyl)carbamate]", "values": [{"measurement": "EC50", "result": "0.001 to 0.999", "unit": "nM"}]}, {"compound": "COC(=O)N[C@H](C(=O)N1CCC[C@H]1c1ncc(-c2ccc(-c3ccc(-c4cnc([C@@H]5CCCN5C(=O)[C@H]5CC[C@@H](NC(=O)OC)CC5)[nH]4)cc3)cc2)[nH]1)C(C)C", "note": "[cj-69, methyl ((1S)-1-(((2S)-2-(5-(4′-(2-((2S)-1-((cis-4-((methoxycarbonyl)amino)cyclohexyl)carbonyl)-2-pyrrolidinyl)-1H-imidazol-5-yl)-4-biphenylyl)-1H-imidazol-2-yl)-1-pyrrolidinyl)carbonyl)-2-methylpropyl)carbamate]", "values": [{"measurement": "EC50", "result": "0.001 to 0.999", "unit": "nM"}]}, {"compound": "COC(=O)N[C@H](C(=O)N1CCC[C@H]1c1ncc(-c2ccc(-c3ccc(-c4cnc([C@@H]5CCCN5C(=O)[C@H]5CC[C@H](NC(=O)OC)CC5)[nH]4)cc3)cc2)[nH]1)C(C)C", "note": "[cj-70, methyl ((1S)-1-(((2S)-2-(5-(4′-(2-((2S)-1-((trans-4-((methoxycarbonyl)amino)cyclohexyl)carbonyl)-2-pyrrolidinyl)-1H-imidazol-5-yl)-4-biphenylyl)-1H-imidazol-2-yl)-1-pyrrolidinyl)carbonyl)-2-methylpropyl)carbamate]", "values": [{"measurement": "EC50", "result": "0.001 to 0.999", "unit": "nM"}]}, {"compound": "CCN(CC)[C@H]1CC[C@@H](C(=O)N2CCC[C@H]2c2ncc(-c3ccc(-c4ccc(-c5cnc([C@@H]6CCCN6C(=O)[C@@H](NC(=O)OC)C(C)C)[nH]5)cc4)cc3)[nH]2)CC1", "note": "[cj-71, methyl ((1S)-1-(((2S)-2-(5-(4′-(2-((2S)-1-((cis-4-(diethylamino)cyclohexyl)carbonyl)-2-pyrrolidinyl)-1H-imidazol-5-yl)-4-biphenylyl)-1H-imidazol-2-yl)-1-pyrrolidinyl)carbonyl)-2-methylpropyl)carbamate]", "values": [{"measurement": "EC50", "result": "0.001 to 0.999", "unit": "nM"}]}, {"compound": "CCN(CC)[C@H]1CC[C@@H](C(=O)N2CCC[C@H]2c2ncc(-c3ccc(-c4ccc(-c5cnc([C@@H]6CCCN6C(=O)[C@@H](NC(=O)OC)[C@@H](C)OC)[nH]5)cc4)cc3)[nH]2)CC1", "note": "[cj-72, methyl ((1S,2R)-1-(((2S)-2-(5-(4′-(2-((2S)-1-((cis-4-(diethylamino)cyclohexyl)carbonyl)-2-pyrrolidinyl)-1H-imidazol-5-yl)-4-biphenylyl)-1H-imidazol-2-yl)-1-pyrrolidinyl)carbonyl)-2-methoxypropyl)carbamate]", "values": [{"measurement": "EC50", "result": "0.001 to 0.999", "unit": "nM"}]}, {"compound": "CCN(CC)[C@@H](C(=O)N1CCC[C@H]1c1ncc(-c2ccc(-c3ccc(-c4cnc([C@@H]5CCCN5C(=O)[C@H]5CC[C@@H](N(CC)CC)CC5)[nH]4)cc3)cc2)[nH]1)c1ccccc1", "note": "[cj-73, cis-4-(((2S)-2-(5-(4′-(2-((2S)-1-((2R)-2-(diethylamino)-2-phenylacetyl)-2-pyrrolidinyl)-1H-imidazol-5-yl)-4-biphenylyl)-1H-imidazol-2-yl)-1-pyrrolidinyl)carbonyl)-N,N-diethylcyclohexanamine]", "values": [{"measurement": "EC50", "result": "0.001 to 0.999", "unit": "nM"}]}, {"compound": "CCN(CC)[C@H]1CC[C@@H](C(=O)N2CCC[C@H]2c2ncc(-c3ccc(-c4ccc(-c5cnc([C@@H]6CCCN6C(=O)[C@H](C)NC(=O)OC)[nH]5)cc4)cc3)[nH]2)CC1", "note": "[cj-74, methyl ((1S)-2-((2S)-2-(5-(4′-(2-((2S)-1-((cis-4-(diethylamino)cyclohexyl)carbonyl)-2-pyrrolidinyl)-1H-imidazol-5-yl)-4-biphenylyl)-1H-imidazol-2-yl)-1-pyrrolidinyl)-1-methyl-2-oxoethyl)carbamate]", "values": [{"measurement": "EC50", "result": "1 to 99", "unit": "nM"}]}, {"compound": "COC(=O)N[C@@H](Cc1cn(Cc2ccccc2)cn1)C(=O)N1CCC[C@H]1c1ncc(-c2ccc(-c3ccc(-c4cnc([C@@H]5CCCN5C(=O)[C@@H](NC(=O)OC)[C@@H](C)OC)[nH]4)cc3)cc2)[nH]1", "note": "[cj-75, methyl ((1S)-1-((1-benzyl-1H-imidazol-4-yl)methyl)-2-((2S)-2-(5-(4′-(2-((2S)-1-((2S,3R)-3-methoxy-2-((methoxycarbonyl)amino)butanoyl)-2-pyrrolidinyl)-1H-imidazol-5-yl)-4-biphenylyl)-1H-irnidazol-2-yl)-1-pyrrolidinyl)-2-oxoethyl)carbamate]", "values": [{"measurement": "EC50", "result": "0.001 to 0.999", "unit": "nM"}]}, {"compound": "COC(=O)N[C@@H](Cc1cn(Cc2ccccc2)cn1)C(=O)N1CCC[C@H]1c1ncc(-c2ccc(-c3ccc(-c4cnc([C@@H]5CCCN5C(=O)[C@@H](NC(=O)OC)C(C)C)[nH]4)cc3)cc2)[nH]1", "note": "[cj-76, methyl ((1S)-1-(((2S)-2-(5-(4′-(2-((2S)-1-((2S)-3-(1-benzyl-1H-imidazol-4-yl)-2-((methoxycarbonyl)amino)propanoyl)-2-pyrrolidinyl)-1H-imidazol-5-yl)-4-biphenylyl)-1H-imidazol-2-yl)-1-pyrrolidinyl)carbonyl)-2-methylpropyl)carbamate]", "values": [{"measurement": "EC50", "result": "0.001 to 0.999", "unit": "nM"}]}, {"compound": "COC(=O)N[C@@H](C)C(=O)N1CCC[C@H]1c1ncc(-c2ccc(-c3ccc(-c4cnc([C@@H]5CCCN5C(=O)[C@H](Cc5cn(Cc6ccccc6)cn5)NC(=O)OC)[nH]4)cc3)cc2)[nH]1", "note": "[cj-77, methyl ((1S)-2-((2S)-2-(5-(4′-(2-((2S)-1-((2S)-3-(1-benzyl-1H-imidazol-4-yl)-2-((methoxycarbonyl)amino)propanoyl)-2-pyrrolidinyl)-1H-imidazol-5-yl)-4-biphenylyl)-1H-imidazol-2-yl)-1-pyrrolidinyl)-1-methyl-2-oxoethyl)carbamate]", "values": [{"measurement": "EC50", "result": "0.001 to 0.999", "unit": "nM"}]}]}
